A word on the IC50: it is the midpoint of a concentration-inhibition curve.

Format in all cases: biochemical
One assay has as its target T1, PI3K α (Homo sapiens, UniProt P42336).
T1 construct: purchased Upstate
Briefly: PI 3-Kinase HTRF inhibition assay, PI3K α. As to conditions: in vitro; read-out: PI3K α IC50. How it is done:
(§1) Commercial kits or systems for assaying PI3-K activities are available. The commercially available kits or systems can be used to screen for inhibitors and/or agonists of PI3-Ks including but not limited to PI 3-Kinase α, β, δ, and γ. An exemplary system is PI 3-Kinase (human) HTRF™ Assay from Upstate. […] Briefly, the assay is a time resolved FRET assay that indirectly measures PIP3 product formed by the activity of a PI3-K. The kinase reaction is performed in a microtitre plate (e.g., a 384 well microtitre plate). The total reaction volume is approximately 20 ul per well. In the first step, each well receives 2 ul of test compound in 20% dimethylsulphoxide resulting in a 2% DMSO final concentration. Next, approximately 14.5 ul of a kinase/PIP2 mixture (diluted in 1× reaction buffer) is added per well for a final concentration of 0.25-0.3 ug/ml kinase and 10 μM PIP2. The plate is scaled and incubated for 15 minutes at room temperature. To start the reaction, 3.5 ul of ATP (diluted in 1× reaction buffer) is added per well for a final concentration of 10 μM ATP. The plate is sealed and incubated for 1 hour at room temperature. The reaction is stopped by adding 5 ul of Stop Solution per well and then 5 ul of Detection Mix is added per well. The plate is sealed, incubated for 1 hour at room temperature, and then read on an appropriate plate reader. Data is analyzed and IC50s are generated using GraphPad Prism 5. For PI3K α, β, δ, and γ, the nM concentration of inhibitor to reach IC50 is provided. […] Similar assays, and others known in the art, can be used to measure the percent inhibition of other kinases, including but not limited to PI3K class II kinases, phosphoinositide 4 kinases (PI4K), and phosphoinositide 5 kinases (PI5K).
For orientation: TR-FRET usually uses a lanthanide donor and a delayed reading to cut background.

The next assay concerns the target T2, PI3K β (Homo sapiens, UniProt P42338).
T2 construct: purchased Upstate
As to the kind of experiment: PI 3-Kinase HTRF inhibition assay, PI3K β. To be noted: in vitro. The method, then: as §1

For the next assay, the target named is T3, PI3K δ (Homo sapiens, UniProt O00329).
T3 construct: purchased Upstate
As to the kind of experiment: PI 3-Kinase HTRF inhibition assay, PI3K δ. To be noted: in vitro; read-out: PI3K δ IC50. The method, then:
as §1

The next assay addresses T4, PI3K γ (Homo sapiens, UniProt P48736).
T4 construct: purchased Upstate
Briefly: PI 3-Kinase HTRF inhibition assay, PI3K γ. To be noted: in vitro.

T2 sequence (P42338 whole entry): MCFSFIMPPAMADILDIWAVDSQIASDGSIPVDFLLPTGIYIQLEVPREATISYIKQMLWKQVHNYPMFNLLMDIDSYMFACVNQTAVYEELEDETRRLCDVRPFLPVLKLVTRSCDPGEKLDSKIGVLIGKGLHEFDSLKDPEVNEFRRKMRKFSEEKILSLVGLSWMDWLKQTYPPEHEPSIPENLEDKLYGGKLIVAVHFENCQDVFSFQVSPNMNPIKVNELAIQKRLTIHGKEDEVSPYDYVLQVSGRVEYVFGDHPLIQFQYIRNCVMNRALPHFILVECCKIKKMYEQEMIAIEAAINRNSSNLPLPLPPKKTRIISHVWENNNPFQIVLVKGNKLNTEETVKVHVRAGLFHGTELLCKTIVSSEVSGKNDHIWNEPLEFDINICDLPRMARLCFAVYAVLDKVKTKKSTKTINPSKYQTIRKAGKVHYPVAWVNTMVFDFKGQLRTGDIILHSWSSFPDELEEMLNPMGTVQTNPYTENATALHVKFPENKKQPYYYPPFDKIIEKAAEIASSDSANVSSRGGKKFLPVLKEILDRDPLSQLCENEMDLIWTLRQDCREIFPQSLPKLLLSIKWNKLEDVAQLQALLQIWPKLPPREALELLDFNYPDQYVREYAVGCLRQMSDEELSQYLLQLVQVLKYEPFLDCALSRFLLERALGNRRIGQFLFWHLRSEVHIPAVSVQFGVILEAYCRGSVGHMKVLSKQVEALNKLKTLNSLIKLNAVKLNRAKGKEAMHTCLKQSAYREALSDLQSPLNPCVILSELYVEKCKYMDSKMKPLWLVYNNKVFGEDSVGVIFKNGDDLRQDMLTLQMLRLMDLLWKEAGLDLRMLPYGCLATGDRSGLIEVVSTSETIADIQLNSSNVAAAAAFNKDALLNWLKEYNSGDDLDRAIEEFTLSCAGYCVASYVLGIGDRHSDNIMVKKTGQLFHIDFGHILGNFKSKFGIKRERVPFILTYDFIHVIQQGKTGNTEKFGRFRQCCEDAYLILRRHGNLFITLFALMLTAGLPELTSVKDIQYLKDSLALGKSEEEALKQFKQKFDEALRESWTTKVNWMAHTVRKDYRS
T2 sequence (P27986 whole entry partner): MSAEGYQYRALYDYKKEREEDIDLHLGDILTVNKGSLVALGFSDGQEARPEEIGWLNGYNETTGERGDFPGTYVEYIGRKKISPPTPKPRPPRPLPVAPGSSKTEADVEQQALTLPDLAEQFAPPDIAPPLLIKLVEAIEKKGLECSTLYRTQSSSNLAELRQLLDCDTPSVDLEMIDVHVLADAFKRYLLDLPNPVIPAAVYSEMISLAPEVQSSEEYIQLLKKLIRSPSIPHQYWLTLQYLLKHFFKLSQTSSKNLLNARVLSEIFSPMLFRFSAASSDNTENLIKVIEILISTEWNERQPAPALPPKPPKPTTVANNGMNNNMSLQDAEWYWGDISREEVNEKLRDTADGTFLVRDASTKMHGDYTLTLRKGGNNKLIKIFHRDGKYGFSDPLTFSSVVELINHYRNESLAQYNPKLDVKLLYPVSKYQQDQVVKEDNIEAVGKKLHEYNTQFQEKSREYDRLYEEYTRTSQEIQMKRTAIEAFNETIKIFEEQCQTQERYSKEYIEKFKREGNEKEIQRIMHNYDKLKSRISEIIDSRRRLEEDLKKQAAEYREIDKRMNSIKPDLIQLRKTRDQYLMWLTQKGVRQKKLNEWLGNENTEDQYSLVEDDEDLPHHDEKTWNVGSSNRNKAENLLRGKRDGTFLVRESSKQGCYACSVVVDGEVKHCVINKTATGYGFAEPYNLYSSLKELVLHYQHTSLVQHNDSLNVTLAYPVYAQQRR
T1 sequence (P42336 whole entry): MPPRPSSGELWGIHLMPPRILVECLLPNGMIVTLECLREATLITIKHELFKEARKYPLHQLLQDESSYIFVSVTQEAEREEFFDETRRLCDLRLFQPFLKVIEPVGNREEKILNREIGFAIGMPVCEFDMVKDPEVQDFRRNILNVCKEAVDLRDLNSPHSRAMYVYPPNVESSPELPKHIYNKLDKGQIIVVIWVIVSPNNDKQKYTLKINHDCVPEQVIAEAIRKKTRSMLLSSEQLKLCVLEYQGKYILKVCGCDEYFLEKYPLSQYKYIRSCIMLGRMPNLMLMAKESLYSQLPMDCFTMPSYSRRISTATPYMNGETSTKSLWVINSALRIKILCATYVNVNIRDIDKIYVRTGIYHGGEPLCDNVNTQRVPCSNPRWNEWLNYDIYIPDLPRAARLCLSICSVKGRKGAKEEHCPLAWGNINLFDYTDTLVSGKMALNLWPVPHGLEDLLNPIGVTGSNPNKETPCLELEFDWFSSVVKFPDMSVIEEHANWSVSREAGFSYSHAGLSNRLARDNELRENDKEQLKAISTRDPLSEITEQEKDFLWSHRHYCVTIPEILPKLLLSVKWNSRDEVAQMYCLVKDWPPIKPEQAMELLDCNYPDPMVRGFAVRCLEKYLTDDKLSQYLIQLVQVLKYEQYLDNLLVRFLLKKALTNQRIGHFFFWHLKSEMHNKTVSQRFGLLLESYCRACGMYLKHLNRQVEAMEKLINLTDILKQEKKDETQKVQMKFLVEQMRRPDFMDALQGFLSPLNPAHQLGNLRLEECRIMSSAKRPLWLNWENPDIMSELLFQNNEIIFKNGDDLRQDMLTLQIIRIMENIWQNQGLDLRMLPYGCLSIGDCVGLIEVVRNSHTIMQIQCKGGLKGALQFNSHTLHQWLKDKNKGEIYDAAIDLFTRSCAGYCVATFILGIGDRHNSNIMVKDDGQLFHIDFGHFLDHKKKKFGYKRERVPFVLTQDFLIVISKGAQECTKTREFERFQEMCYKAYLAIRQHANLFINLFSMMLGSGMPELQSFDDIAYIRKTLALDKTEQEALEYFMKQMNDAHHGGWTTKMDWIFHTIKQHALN
T1 sequence (P27986 whole entry partner): as the sequence (P27986 whole entry partner) above
T3 sequence (O00329 whole entry): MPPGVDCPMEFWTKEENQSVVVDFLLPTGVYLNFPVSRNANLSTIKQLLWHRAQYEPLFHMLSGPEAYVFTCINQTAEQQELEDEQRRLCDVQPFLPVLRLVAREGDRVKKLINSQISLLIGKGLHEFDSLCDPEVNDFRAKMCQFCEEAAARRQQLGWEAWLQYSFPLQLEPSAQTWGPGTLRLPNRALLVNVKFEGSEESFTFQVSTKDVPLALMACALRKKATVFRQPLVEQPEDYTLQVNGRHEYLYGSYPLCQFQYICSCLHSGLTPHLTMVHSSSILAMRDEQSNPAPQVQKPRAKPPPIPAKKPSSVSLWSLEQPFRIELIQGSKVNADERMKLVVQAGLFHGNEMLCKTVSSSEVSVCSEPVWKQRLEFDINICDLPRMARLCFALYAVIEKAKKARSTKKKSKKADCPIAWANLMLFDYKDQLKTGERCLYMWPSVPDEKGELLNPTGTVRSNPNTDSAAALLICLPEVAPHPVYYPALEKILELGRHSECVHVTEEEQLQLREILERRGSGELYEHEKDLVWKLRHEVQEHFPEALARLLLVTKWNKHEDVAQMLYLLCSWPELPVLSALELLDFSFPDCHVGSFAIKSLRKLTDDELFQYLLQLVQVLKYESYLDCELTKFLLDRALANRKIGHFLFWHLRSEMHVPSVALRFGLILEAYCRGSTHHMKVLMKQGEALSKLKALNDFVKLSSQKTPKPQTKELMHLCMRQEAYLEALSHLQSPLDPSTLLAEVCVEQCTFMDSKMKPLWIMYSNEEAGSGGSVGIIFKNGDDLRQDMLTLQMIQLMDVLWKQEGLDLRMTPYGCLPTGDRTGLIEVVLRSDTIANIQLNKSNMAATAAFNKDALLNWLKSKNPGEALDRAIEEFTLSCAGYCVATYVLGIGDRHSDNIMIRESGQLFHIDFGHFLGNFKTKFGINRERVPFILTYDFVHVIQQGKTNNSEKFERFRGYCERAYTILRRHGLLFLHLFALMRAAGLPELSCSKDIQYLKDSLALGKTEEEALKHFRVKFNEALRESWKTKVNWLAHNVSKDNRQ
T3 sequence (P27986 whole entry partner): as the sequence (P27986 whole entry partner) above
T4 sequence (P48736 whole entry): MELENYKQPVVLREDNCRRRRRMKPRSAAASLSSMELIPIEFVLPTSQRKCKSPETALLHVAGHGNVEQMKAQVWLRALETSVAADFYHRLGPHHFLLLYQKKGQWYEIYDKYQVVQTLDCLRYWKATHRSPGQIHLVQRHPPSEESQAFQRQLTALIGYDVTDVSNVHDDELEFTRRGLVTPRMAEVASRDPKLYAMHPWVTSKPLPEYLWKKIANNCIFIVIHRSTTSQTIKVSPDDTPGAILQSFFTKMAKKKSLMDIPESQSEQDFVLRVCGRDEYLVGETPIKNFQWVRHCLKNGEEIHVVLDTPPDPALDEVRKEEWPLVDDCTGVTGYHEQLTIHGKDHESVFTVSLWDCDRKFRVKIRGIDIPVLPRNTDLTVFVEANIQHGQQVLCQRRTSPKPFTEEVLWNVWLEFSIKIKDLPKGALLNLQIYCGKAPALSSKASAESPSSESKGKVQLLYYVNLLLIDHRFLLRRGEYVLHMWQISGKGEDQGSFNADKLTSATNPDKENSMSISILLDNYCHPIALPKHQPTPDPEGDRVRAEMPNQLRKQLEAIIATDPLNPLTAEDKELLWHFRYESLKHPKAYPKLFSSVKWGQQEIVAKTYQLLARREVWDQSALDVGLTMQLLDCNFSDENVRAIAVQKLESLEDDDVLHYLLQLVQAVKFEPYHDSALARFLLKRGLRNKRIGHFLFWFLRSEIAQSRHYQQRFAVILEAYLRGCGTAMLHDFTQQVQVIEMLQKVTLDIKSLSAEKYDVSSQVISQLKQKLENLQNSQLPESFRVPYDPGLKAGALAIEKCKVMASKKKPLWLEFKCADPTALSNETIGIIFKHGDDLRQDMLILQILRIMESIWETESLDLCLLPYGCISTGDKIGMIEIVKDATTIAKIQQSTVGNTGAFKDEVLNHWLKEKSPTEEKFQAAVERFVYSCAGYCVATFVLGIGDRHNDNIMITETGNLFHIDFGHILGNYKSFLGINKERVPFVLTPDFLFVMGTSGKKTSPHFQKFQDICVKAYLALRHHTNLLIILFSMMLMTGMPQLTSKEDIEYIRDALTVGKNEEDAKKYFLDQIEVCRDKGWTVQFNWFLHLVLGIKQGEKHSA

Take `CC1CN(C2CN(c3cnc4ccc(-c5ccc6oc(N)nc6c5)nc4n3)C2)CCO1` (centres unmarked) [Compound 18]: the IC50 at PI3K α is < 1 µM; against PI3K β it was > 10 µM; at PI3K δ, > 10 µM; at PI3K γ, < 10 µM.
Take `CN1CCN(c2ccc3ncc(-c4ccc5oc(N)nc5c4)cc3n2)CC1` [Compound 80]: the IC50 was < 10 µM on PI3K α, < 10 µM at PI3K β, > 10 µM at PI3K δ and > 10 µM against PI3K γ.
As for `CCN1CCN(C2CN(c3cnc4ccc(-c5ccc6oc(N)nc6c5)nc4c3)C2)CC1` [Compound 75], the IC50 at PI3K α is < 0.1 µM; on PI3K β, < 1 µM; on PI3K δ, < 1 µM; at PI3K γ, < 10 µM.
In the case of `C[C@H]1COCCN1C1CN(c2cnc3ccc(-c4ccc5oc(N)nc5c4)nc3c2)C1` [Compound 68], the concentration for half-maximal inhibition (IC50) at PI3K α is < 0.1 µM; against PI3K β, > 10 µM; on PI3K δ, > 10 µM; against PI3K γ it was < 10 µM.
As for `Nc1nc2cc(-c3ccc4ncc(N5CC(N6CCN(C7CC7)CC6)C5)cc4n3)ccc2o1` [Compound 70], the IC50 is < 0.1 µM on PI3K α, < 10 µM against PI3K β, < 10 µM on PI3K δ and < 1 µM at PI3K γ.
As to `CC1(C)CN(C2CN(c3cnc4ccc(-c5ccc6oc(N)nc6c5)nc4n3)C2)CCN1` [Compound 52], the IC50 at PI3K α was < 0.1 µM; against PI3K β, < 10 µM; on PI3K δ it was < 1 µM; against PI3K γ, < 10 µM.
In the case of `C[C@H]1COCCN1C1CN(c2cnc3ccc(-c4ccc5oc(N)nc5c4)nc3n2)C1` [Compound 61], the half-maximal inhibitory concentration (IC50) on PI3K α is < 0.1 µM; against PI3K β, > 10 µM; on PI3K δ, < 10 µM; on PI3K γ it was < 10 µM.
On to `Nc1nc2cc(-c3ccc4ncc(-c5cccnc5)nc4n3)ccc2o1` [Compound 3], for which the IC50 on PI3K α was < 1 µM; against PI3K β, < 10 µM; at PI3K δ it was > 10 µM; at PI3K γ it was < 1 µM.
For the molecule `Nc1nc2cc(-c3ccc4ncc(N5CCNC(=O)C5)nc4n3)ccc2o1` [Compound 29], the IC50 was < 0.1 µM at PI3K α, < 1 µM on PI3K β, < 10 µM at PI3K δ and < 0.1 µM on PI3K γ.
Turning to `Nc1nc2cc(-c3ccc4nc(N5CCOCC5)cnc4n3)ccc2o1` [Compound 7], the concentration for half-maximal inhibition (IC50) on PI3K α, against PI3K β, at PI3K δ and against PI3K γ was > 10 µM in each case.
For `CN1CCN(c2cnc3ccc(-c4ccc5oc(N)nc5c4)nc3n2)CC1` [Compound 4], the IC50 at PI3K α is < 1 µM; at PI3K β, < 1 µM; on PI3K δ, < 10 µM; against PI3K γ, < 10 µM.
`C[C@H]1CN(C2CN(c3cnc4ccc(-c5ccc6oc(N)nc6c5)nc4c3)C2)CCN1` [Compound 54]: the IC50 at PI3K α was < 0.1 µM; at PI3K β, < 10 µM; at PI3K δ it was < 1 µM; against PI3K γ it was < 10 µM.
For the molecule `CCOC(=O)N1CC=C(c2cnc3ccc(-c4ccc5oc(N)nc5c4)nc3n2)CC1` [Compound 9], the IC50 at PI3K α is < 0.1 µM; on PI3K β it was < 10 µM; at PI3K δ it was < 10 µM; against PI3K γ, < 0.1 µM.
Regarding `C[C@@H]1CN(c2cnc3ccc(-c4ccc5oc(N)nc5c4)nc3c2)CCN1` [Compound 48], the concentration for half-maximal inhibition (IC50) is < 0.1 µM on PI3K α, < 1 µM against PI3K β, < 10 µM at PI3K δ and < 10 µM on PI3K γ.
In the case of `CC(C)(N)C(=O)N1CCN(c2cnc3ccc(-c4ccc5oc(N)nc5c4)nc3c2)CC1` [Compound 43, 2-amino-1-(4-(6-(2-aminobenzo[d]oxazol-5-yl)-1,5-naphthyridin-3-yl)piperazin-1-yl)-2-methylpropan-1-one], the IC50 on PI3K α was < 0.1 µM; on PI3K δ, < 1 µM; at PI3K γ, < 1 µM.
For the molecule `NCC(=O)N1CCN(c2cnc3ccc(-c4ccc5oc(N)nc5c4)nc3n2)CC1` [Compound 33], the IC50 at PI3K α is < 0.1 µM; at PI3K β, < 10 µM; at PI3K δ, < 10 µM; against PI3K γ it was < 10 µM.
`C[C@@H]1CN(C2CN(c3cnc4ccc(-c5ccc6oc(N)nc6c5)nc4c3)C2)CCN1` [Compound 56]: the IC50 at PI3K α is < 0.1 µM; against PI3K β, < 10 µM; at PI3K δ, < 1 µM; against PI3K γ, < 1 µM.
For the molecule `Nc1nc2cc(-c3ccc4ncc(N5CCOCC5)cc4n3)ccc2o1` [Compound 22], the half-inhibitory concentration (IC50) is < 0.1 µM on PI3K α, < 1 µM on PI3K β, > 10 µM on PI3K δ and < 0.1 µM against PI3K γ.
For `CN1CCN(C2CN(c3cnc4ccc(-c5ccc6oc(N)nc6c5)nc4c3)C2)CC1(C)C` [Compound 83], the IC50 on PI3K α was < 0.1 µM; against PI3K β, < 1 µM; at PI3K δ, < 0.1 µM; against PI3K γ, < 1 µM.
`Nc1nc2cc(-c3ccc4ncc(N5CC(N6CCN(CCO)CC6)C5)cc4n3)ccc2o1` [Compound 65]: the IC50 is < 0.1 µM at PI3K α, < 10 µM against PI3K β, < 1 µM at PI3K δ and < 1 µM at PI3K γ.
Turning to `C[C@@H]1COCCN1C1CN(c2cnc3ccc(-c4ccc5oc(N)nc5c4)nc3c2)C1` [Compound 66], the IC50 is < 0.1 µM at PI3K α, < 10 µM on PI3K β, < 1 µM at PI3K δ and < 0.1 µM on PI3K γ.
On to `Nc1nc2cc(-c3ccc4ncc(N5CC(N6CCNCC6)C5)nc4n3)ccc2o1` [Compound 34], for which the IC50 is < 1 µM at PI3K α, > 10 µM against PI3K β, > 10 µM at PI3K δ and > 10 µM on PI3K γ.
Take `C[C@@H]1CN(C2CN(c3cnc4ccc(-c5ccc6oc(N)nc6c5)nc4c3)C2)CCN1C` [Compound 57]: the IC50 is < 0.1 µM on PI3K α, < 10 µM against PI3K β, < 1 µM at PI3K δ and < 10 µM against PI3K γ.
Consider `CCN1CCN(C2CN(c3cnc4ccc(-c5ccc6oc(N)nc6c5)nc4n3)C2)CC1` [Compound 76], for which the half-maximal inhibitory concentration (IC50) is < 0.1 µM at PI3K α, < 10 µM at PI3K β, < 10 µM at PI3K δ and < 10 µM against PI3K γ.
For `Nc1nc2cc(-c3ccc4ncc(N5CCC(F)(F)CC5)nc4n3)ccc2o1` [Compound 13], the IC50 was < 0.1 µM at PI3K α, > 10 µM at PI3K β, > 10 µM on PI3K δ and < 0.1 µM against PI3K γ.
`CC1(C)CN(C2CN(c3cnc4ccc(-c5ccc6oc(N)nc6c5)nc4c3)C2)CCN1` [Compound 58]: the IC50 on PI3K α is < 0.1 µM; on PI3K β, < 10 µM; at PI3K δ, < 1 µM; on PI3K γ, < 1 µM.
On to `Nc1nc2cc(-c3ccc4ncc(N5CC(N6CCN(CC7CC7)CC6)C5)nc4n3)ccc2o1` [Compound 35], for which the IC50 on PI3K α was < 0.1 µM; at PI3K β it was < 10 µM; on PI3K δ, < 10 µM; against PI3K γ, < 10 µM.
Consider `C[C@H]1CN(C2CN(c3cnc4ccc(-c5ccc6oc(N)nc6c5)nc4n3)C2)CCN1` [Compound 10], for which the IC50 on PI3K α is < 0.1 µM; against PI3K β, > 10 µM; at PI3K δ, < 10 µM; against PI3K γ it was < 10 µM.
Take `CCOC(=O)N1CCN(c2cnc3ccc(-c4ccc5oc(N)nc5c4)nc3c2)CC1` [Compound 36]: the IC50 on PI3K α is < 0.1 µM; against PI3K β it was < 10 µM; on PI3K δ, > 10 µM; against PI3K γ it was < 0.1 µM.
With `CC(C)(N)C(=O)N1CCN(c2cnc3ccc(-c4ccc5oc(N)nc5c4)nc3n2)CC1` [Compound 40], the IC50 was < 0.1 µM on PI3K α, < 10 µM against PI3K β, < 10 µM on PI3K δ and < 10 µM at PI3K γ.
Turning to `CC(C)N1CCN(C2CN(c3cnc4ccc(-c5ccc6oc(N)nc6c5)nc4c3)C2)CC1` [Compound 72, 5-(7-(3-(4-isopropylpiperazin-1-yl)azetidin-1-yl)-1,5-naphthyridin-2-yl)benzo[d]oxazol-2-amine], the results for the IC50 on PI3K α, at PI3K β and on PI3K δ were < 0.1 µM, < 1 µM and < 1 µM, respectively.
As for `Nc1nc2cc(-c3ccc4ncc(N5CCN(C(=O)C6(N)CC6)CC5)nc4n3)ccc2o1` [Compound 41], the IC50 on PI3K α and against PI3K γ was < 0.1 µM each time.
On to `Nc1nc2cc(-c3ccc4ncc(N5CC6CCC(C5)O6)nc4n3)ccc2o1` [Compound 28], for which the IC50 at PI3K α was < 0.1 µM; on PI3K β, > 10 µM; at PI3K δ, > 10 µM; against PI3K γ, < 1 µM.
For `CC1(C)CN(C2CN(c3cnc4ccc(-c5ccc6oc(N)nc6c5)nc4n3)C2)CCO1` [Compound 17], the IC50 on PI3K α was < 1 µM; against PI3K β, > 10 µM; on PI3K δ, > 10 µM.

Values taken from US9359352B2, “Substituted benzimidazoles as PI3 kinase inhibitors” (Intellikine LLC, priority 2010, dated 2016).
